Measurements: patent US20240197938A1, “ANTIMICROBIAL COMPOUNDS BASED ON GLUCOHEPTONIC ACIDS AND THEIR SALTS” (HARCROS CHEMICALS, INC., priority 2021, published 2024)

Tests used:
[1] = Bubble pressure tensiometry (dynamic surface tension, calculated CMC); type: physicochemical; details: sub-CMC, CMC and super-CMC concentrations; FIGS. 1-7
Protocol: Dynamic surface tensions of certain formulations were measured using a KRÜSS BP100 BPT Mobile bubble pressure tensiometer. Samples of the solution of Example 7 were tested by adding the test solution to a glass dish and lowering the disposable capillary tip and temperature probe into the solution. The dynamic setting was selected, and the instrument was set to collect 30 data points, the bubble age increasing from about 10 ms to about 30,000 ms.
Bubble tensiometry was used to calculate the Critical Micelle Concentration (CMC) value for each of the solutions.
FIG. 1 presents a comparison of the bubble age to surface tension for RM14A at CMC, sub-CMC, and super-CMC concentrations. FIG. 2 presents a comparison of the bubble age to surface tension for RM14B at CMC, sub-CMC, and super-CMC concentrations. FIG. 3 presents a comparison of the bubble age to surface tension for RM14C at CMC, sub-CMC, and super-CMC concentrations. FIG. 4 presents a comparison of the bubble age to surface tension for RM12A, RM13A, RM14A, and RM15A at super-CMC concentrations. FIG. 5 presents a comparison of the bubble age to surface tension for RM12A, RM13A, RM14A, and RM15A at CMC concentrations. FIG. 6 presents a comparison of the bubble age to surface tension for RM12A, RM13A, RM14A, and RM15A at CMC concentrations. FIG. 7 presents a comparison of bubble age to surface tension for RM12A, RM13A, RM14A, and RM15A at sub-CMC concentrations.

Candida albicans = assay: ASTM E2315-16 Time-Kill Procedure; type: cell-based; details: 30 seconds
Protocol: (§1) Select compounds were tested for antimicrobial activity using ASTM method […]-16 (Standard Guide for Assessment of Antimicrobial Activity using a Time-Kill Procedure). Six microbes were tested: Candida albicans, Staphylococcus aureus, Staphylococcus epidermidis. Escherichia coli, Salmonella abony, and Listeria monocytogenes. Four chlorhexidine salts were tested: chlorhexidine di-α-glucoheptonate (Sample G), chlorhexidine di-β73-glucoheptonate (Sample H), chlorhexidine digluconate (Sample I), and chlorhexidine diacetate (Sample P). Both chlorhexidine diglucoheptonate salts were prepared at a 2:1 molar ratio of glucoheptonic acid to chlorhexidine. Dilutions of each salt were prepared using sterile water (20-30 ppm hardness), to achieve the desired wt. % concentration. Two glucoheptonic acids were evaluated for antimicrobial activity against the same six microbes as Example 13. Sample L was α-glucoheptonic acid. Sample M was β73-glucoheptonic acid. Benzalkonium salts were also tested using the same procedure as set forth in Example 13. The samples were benzalkonium chloride (C12-C16) (Sample C), benzalkonium chloride (C12-C14) (Sample D), benzalkonium chloride in combination with a stoichiometric amount of α-glucoheptonate (Sample F), and benzalkonium chloride in combination with a molar excess of α-glucoheptonate (Sample N). Sample F was prepared by mixing and extensively heating a stoichiometric quantity (1:1) of sodium α-glucoheptonate with benzalkonium chloride, typified by the C12-14 alkyl chain. Sample N was prepared by simply blending benzalkonium chloride, typified by the C12-16 chain, with a molar excess of sodium α-glucoheptonate (1.6:1). Both Samples F and N contain sodium chloride.

Staphylococcus aureus = assay: ASTM E2315-16 Time-Kill Procedure; type: cell-based; details: 30 seconds
Protocol: as §1

[2] = system: Staphylococcus epidermidis; assay: ASTM E2315-16 Time-Kill Procedure; type: cell-based; details: 30 seconds
Protocol: as §1

Escherichia coli = assay: ASTM E2315-16 Time-Kill Procedure; type: cell-based; details: 30 seconds
Protocol: as §1, with “concentration.” for “concentration. Two glucoheptonic acids were evaluated for antimicrobial activity against the same six microbes as Example 13. Sample L was α-glucoheptonic acid. Sample M was β73-glucoheptonic acid.”

Listeria monocytogenes = assay: ASTM E2315-16 Time-Kill Procedure; type: cell-based; details: 30 seconds
Protocol: as §1, with “concentration.” for “concentration. Two glucoheptonic acids were evaluated for antimicrobial activity against the same six microbes as Example 13. Sample L was α-glucoheptonic acid. Sample M was β73-glucoheptonic acid.”

Salmonella abony = assay: ASTM E2315-16 Time-Kill Procedure; type: cell-based; details: 30 seconds
Protocol: as §1, with “concentration.” for “concentration. Two glucoheptonic acids were evaluated for antimicrobial activity against the same six microbes as Example 13. Sample L was α-glucoheptonic acid. Sample M was β73-glucoheptonic acid.”

[3] = system: all microbes (Candida albicans, Staphylococcus aureus, Staphylococcus epidermidis, Escherichia coli, Salmonella abony, Listeria monocytogenes); assay: ASTM E2315-16 Time-Kill Procedure, average across all microbes; type: cell-based; details: for Log Reduction, Average, all microbes: 30 seconds; for average Log Reduction (LR) in microbial population across all microbes: 10 minutes
Protocol: Select compounds were tested for antimicrobial activity using ASTM method […]-16 (Standard Guide for Assessment of Antimicrobial Activity using a Time-Kill Procedure). Six microbes were tested: Candida albicans, Staphylococcus aureus, Staphylococcus epidermidis. Escherichia coli, Salmonella abony, and Listeria monocytogenes. Four chlorhexidine salts were tested: chlorhexidine di-α-glucoheptonate (Sample G), chlorhexidine di-β73-glucoheptonate (Sample H), chlorhexidine digluconate (Sample I), and chlorhexidine diacetate (Sample P). Both chlorhexidine diglucoheptonate salts were prepared at a 2:1 molar ratio of glucoheptonic acid to chlorhexidine. Dilutions of each salt were prepared using sterile water (20-30 ppm hardness), to achieve the desired wt. % concentration. Samples G, H, I, and P were also tested at a concentration of 0.60 wt % active and evaluated for the average Log Reduction in microbial population at 10 minutes, across all microbes. A further test was conducted at a concentration of 1.0 wt % active and evaluated for the average Log Reduction in microbial population at 10 minutes, across all microbes. Benzalkonium salts were also tested using the same procedure as set forth in Example 13. The samples were benzalkonium chloride (C12-C16) (Sample C), benzalkonium chloride (C12-C14) (Sample D), benzalkonium chloride in combination with a stoichiometric amount of α-glucoheptonate (Sample F), and benzalkonium chloride in combination with a molar excess of α-glucoheptonate (Sample N). Sample F was prepared by mixing and extensively heating a stoichiometric quantity (1:1) of sodium α-glucoheptonate with benzalkonium chloride, typified by the C12-14 alkyl chain. Sample N was prepared by simply blending benzalkonium chloride, typified by the C12-16 chain, with a molar excess of sodium α-glucoheptonate (1.6:1). Both Samples F and N contain sodium chloride. A further antimicrobial test was conducted to determine the log reduction at 10 minutes. Samples C, D, F, and N are as defined above.

Compound: N=C(NCCCCCCNC(=N)NC(=N)Nc1ccc(Cl)cc1)NC(=N)Nc1ccc(Cl)cc1.O=C(O)C(O)C(O)C(O)C(O)C(O)CO.O=C(O)C(O)C(O)C(O)C(O)C(O)CO [Sample H, chlorhexidine di-β73-glucoheptonate]
- surface tension versus bubble age (rate and magnitude of reduction) [1]: fall more rapidly and to a lower value than either the di-α-glucoheptonate or the comparative digluconate salt
- Log Reduction (Candida albicans; 0.20% (wt. %)): 4.26
- Log Reduction (Candida albicans; 0.60% (wt. %)): 4.56
- Log Reduction (Candida albicans; 1.00% (wt. %)): 4.51
- Log Reduction (Staphylococcus aureus; 0.20% (wt. %)): 0.76
- Log Reduction (Staphylococcus aureus; 0.60% (wt. %)): 3.19
- Log Reduction (Staphylococcus aureus; 1.00% (wt. %)): 4.33
- Log Reduction ([2]; 0.20% (wt. %)): 1.47
- Log Reduction ([2]; 0.60% (wt. %)): 2.65
- Log Reduction ([2]; 1.00% (wt. %)): 3.75
- Log Reduction (Escherichia coli; 0.20% (wt. %)): 2.39
- Log Reduction (Escherichia coli; 0.60% (wt. %)): 2.87
- Log Reduction (Escherichia coli; 1.00% (wt. %)): 3.77
- Log Reduction (Listeria monocytogenes; 0.20% (wt. %)): 1.57
- Log Reduction (Listeria monocytogenes; 0.60% (wt. %)): 4.99
- Log Reduction (Listeria monocytogenes; 1.00% (wt. %)): 5.27
- Log Reduction (Salmonella abony; 0.20% (wt. %)): 3.14
- Log Reduction (Salmonella abony; 0.60% (wt. %)): 3.26
- Log Reduction (Salmonella abony; 1.00% (wt. %)): 3.44
- Log Reduction, Average, all microbes ([3]; 0.20% (wt. %)): 2.27
- Log Reduction, Average, all microbes ([3]; 0.60% (wt. %)): 3.59
- Log Reduction, Average, all microbes ([3]; 1.00% (wt. %)): 4.18
- average Log Reduction (LR) in microbial population across all microbes ([3]; 0.60 wt % active): 5.25
- average Log Reduction (LR) in microbial population across all microbes ([3]; 1.0 wt % active): 5.51
- performance in the Time-Kill Test ([3]; at lower concentrations): better performance than the di-α-glucoheptonate salt
